Reference: patent publication US5646000A, “Compounds and methods for identifying activated platelets” (Merck & Co., Inc., priority 1994, dated 1997)
Like-named read-outs stand apart in the source and are kept apart here.

Assays:
[1] = target: active form of GP IIb/IIIa (Homo sapiens, UniProt P05106+P08514); experiment: Fluorescence displacement of probe 2-8 from active form of purified GP IIb/IIIa; type: binding
Experimental: The purified glycoprotein IIb/IIIa (final concentration 0.64 μM, active form which binds to RGDS affinity column) was mixed with fluorescent antagonist 2-8 (final concentration 1 μM) in a fluorescence cell and fluorescence recorded (excitation wavelength 340 nm, emission range 360-600 nm).

ADP-stimulated platelets = experiment: Fibrinogen Receptor Antagonist Assay: ADP-stimulated platelet aggregation (gel-filtered human platelets); type: cell-based; conditions: gel-filtered human platelets 2×10^8 per ml, fibrinogen 100 μg/ml, Ca^2+ 1 mM, 10 μM ADP, 37° C.
Experimental: The fibrinogen receptor antagonist activity is based on evaluation of inhibition of ADP-stimulated platelets. Aggregation requires that fibrinogen bind to and occupy the fibrinogen receptor site. Inhibitors of fibrinogen binding inhibit aggregation.
Platelet aggregation was measured at 37° C. in a Chronolog aggregometer. The reaction mixture contained gel-filtered human platelets (2×10^8 per ml), fibrinogen (100 μg/ml), Ca^2+ (1 mM), and the compound to be tested. The aggregation was initiated by adding 10 μM ADP after the other components had been added. The reaction was allowed to proceed for at least 2 minutes.

[2] = target: inactive form of GP IIb/IIIa (unactivated GP IIb/IIIa) (Homo sapiens, UniProt P05106+P08514); experiment: Fluorescence displacement of probe 2-8 from inactive (unactivated) form of GP IIb/IIIa; type: binding
inactive form of GP IIb/IIIa (unactivated GP IIb/IIIa), sequence (P08514 32-887 limits assumed): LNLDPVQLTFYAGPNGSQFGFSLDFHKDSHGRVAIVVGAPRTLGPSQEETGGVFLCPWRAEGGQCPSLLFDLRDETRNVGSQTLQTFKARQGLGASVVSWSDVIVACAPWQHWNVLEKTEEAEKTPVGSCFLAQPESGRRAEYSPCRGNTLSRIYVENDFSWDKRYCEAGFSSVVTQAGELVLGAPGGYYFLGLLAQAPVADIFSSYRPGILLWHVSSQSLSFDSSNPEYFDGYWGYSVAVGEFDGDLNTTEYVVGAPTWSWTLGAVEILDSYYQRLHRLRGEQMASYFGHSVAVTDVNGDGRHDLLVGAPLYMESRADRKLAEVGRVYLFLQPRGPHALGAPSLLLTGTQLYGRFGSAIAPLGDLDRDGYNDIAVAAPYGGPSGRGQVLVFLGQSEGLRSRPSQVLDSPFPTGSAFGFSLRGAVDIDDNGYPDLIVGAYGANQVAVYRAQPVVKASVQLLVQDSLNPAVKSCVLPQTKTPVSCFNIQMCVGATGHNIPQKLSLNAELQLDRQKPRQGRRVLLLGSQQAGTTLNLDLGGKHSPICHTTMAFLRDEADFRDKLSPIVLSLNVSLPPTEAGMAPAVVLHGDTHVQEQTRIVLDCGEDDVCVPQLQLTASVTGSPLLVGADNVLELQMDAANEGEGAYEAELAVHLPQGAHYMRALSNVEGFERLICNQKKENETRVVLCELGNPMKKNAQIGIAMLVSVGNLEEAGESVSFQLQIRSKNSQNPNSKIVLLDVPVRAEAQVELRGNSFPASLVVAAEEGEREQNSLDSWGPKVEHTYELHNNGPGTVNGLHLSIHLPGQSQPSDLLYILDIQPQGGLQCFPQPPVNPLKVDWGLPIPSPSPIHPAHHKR
inactive form of GP IIb/IIIa (unactivated GP IIb/IIIa), sequence (P08514 891-1039 partner limits assumed): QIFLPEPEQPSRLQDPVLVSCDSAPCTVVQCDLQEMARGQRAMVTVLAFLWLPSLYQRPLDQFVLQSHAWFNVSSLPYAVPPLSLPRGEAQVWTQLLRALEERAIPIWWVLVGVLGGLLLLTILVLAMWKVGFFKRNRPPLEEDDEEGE
inactive form of GP IIb/IIIa (unactivated GP IIb/IIIa), sequence (P05106 27-788): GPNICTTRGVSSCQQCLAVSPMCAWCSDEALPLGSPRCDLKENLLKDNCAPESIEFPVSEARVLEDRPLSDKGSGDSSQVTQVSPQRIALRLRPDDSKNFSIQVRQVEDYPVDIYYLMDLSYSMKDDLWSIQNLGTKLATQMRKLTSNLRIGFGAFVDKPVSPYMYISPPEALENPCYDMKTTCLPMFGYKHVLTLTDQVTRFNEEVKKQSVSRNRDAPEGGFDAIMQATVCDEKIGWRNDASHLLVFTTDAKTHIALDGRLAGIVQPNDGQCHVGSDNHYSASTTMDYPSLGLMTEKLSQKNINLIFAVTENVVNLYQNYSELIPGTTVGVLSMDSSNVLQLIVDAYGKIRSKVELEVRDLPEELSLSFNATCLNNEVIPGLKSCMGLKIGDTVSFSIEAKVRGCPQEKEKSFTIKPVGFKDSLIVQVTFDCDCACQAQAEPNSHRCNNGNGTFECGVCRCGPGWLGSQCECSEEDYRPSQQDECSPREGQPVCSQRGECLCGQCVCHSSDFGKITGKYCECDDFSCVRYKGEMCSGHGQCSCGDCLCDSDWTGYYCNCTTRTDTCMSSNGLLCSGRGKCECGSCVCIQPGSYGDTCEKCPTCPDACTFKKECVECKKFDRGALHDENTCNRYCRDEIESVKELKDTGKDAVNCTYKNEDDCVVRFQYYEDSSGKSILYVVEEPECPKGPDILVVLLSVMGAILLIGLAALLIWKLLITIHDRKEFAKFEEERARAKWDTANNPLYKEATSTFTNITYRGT

[3] = unactivated GP IIb/IIIa (Table 1), read-out: Ki (nM) (unactivated GP IIb/IIIa)

active form of GP IIb/IIIa, sequence (P08514 32-887 limits assumed): as the sequence (P08514 32-887 limits assumed) above
active form of GP IIb/IIIa, sequence (P08514 891-1039 partner limits assumed): as the sequence (P08514 891-1039 partner limits assumed) above
active form of GP IIb/IIIa, sequence (P05106 27-788): as the sequence (P05106 27-788) above

Row | SMILES | Ki ([1]; active form of GP IIb/IIIa, binds to RGDS affinity column, read-out: Ki of fluorescence antagonist 2-8 (used for the calculation)) [nM] | IC50 (ADP-stimulated platelets) [nM] | Ki [2, 3] [nM] | Ki ([1]; GP IIb/IIIa 0.64 μM, probe 2-8 1 μM, excitation 340 nm, change in fluorescence at 550 nm, read-out: Ki for nonfluorescent antagonist toward the active form of GP IIb/IIIa) [nM] | Ki ([2]; inactive form, does not bind to RGDS affinity column, displacement of 2-8, read-out: Ki on inactive form of GP IIb/IIIa) [nM]
1 | CN(C)c1cccc2c(S(=O)(=O)N[C@@H](CNC(=O)c3ccc4c(c3)C(=O)N(CCC3CCNCC3)C4)C(=O)O)cccc12 [Compound 2-8, 1H-Isoindole-5-carboxamide, 2,3-dihydro-N-[2(S)-dansylamino-3-aminopropionic acid]-2-[2-(4-piperidinyl)ethyl]-3-oxo] | 3.7 | – | – | – | –
2 | O=C(O)CCNC(=O)c1ccc2c(c1)C(=O)N(CCC1CCNCC1)C2 [Compound A, 2,3-Dihydro-N-(2-carboxyethyl)-2-[2-(4-piperidinyl)ethyl]-3-oxo-1-H-isoindole-5-carboxamide] | – | 27 | 99 | – | –
3 | O=C(O)C[C@@H](CCc1c[nH]c2ccccc12)NC(=O)CNC(=O)CCCC1CCNCC1 [Compound B, Pib-Gly-3(R)-[2(indol-3-yl)ethyl]β-alanine hydrogen chloride] | – | 94 | – | 4 | 470
4 | CCCCS(=O)(=O)N[C@@H](CNC(=O)c1ccc2c(c1)C(=O)N(CCC1CCNCC1)C2)C(=O)O [Compound D, 1-H-isoindole-5-carboxamide, 2,3 dihydro-N-[3-(2(S)-n-butylsulfonylamino)propionic acid]-2-[2-(4-piperidinyl)ethyl]-3-oxo] | – | 21 | 2.4 | – | –
5 | O=C(NC[C@H](NS(=O)(=O)c1cccnc1)C(=O)O)c1cc2cc(CCC3CCNCC3)sc2s1 [Compound E, 5-[2-(Piperidin-4-yl)ethyl]thieno[2,3-b]thiophene-2-N-[3-2(S)-(3-pyridylsulfonylamino)propionic acid] carboxamide] | – | 8 | ≤ 2.7 | – | –
